Here are results for eight compounds from ChEMBL document CHEMBL3244131, “Synthesis of cephalosporin-4-aldehydes” (1977).

What all share (type): functional
In assay [1] the test system is Staphylococcus aureus. As to the kind of experiment: Antimicrobial activity against Staphylococcus aureus ATCC 6538P by threefold dilution agar inclusion method.
The test system of assay [2] is Streptococcus pyogenes. As to the kind of experiment: Antimicrobial activity against Streptococcus pyogenes ATCC 8668 by threefold dilution agar inclusion method.
The subject of assay [3] is Escherichia coli. In words: Antimicrobial activity against Escherichia coli ATCC 25922-1 by threefold dilution agar inclusion method.
The test system of assay [4] is Klebsiella pneumoniae. As to the kind of experiment: Antimicrobial activity against Klebsiella pneumoniae ATCC 10031-2 by threefold dilution agar inclusion method.
In assay [5] the test system is Proteus vulgaris. As to the kind of experiment: Antimicrobial activity against Proteus vulgaris ATCC 9484 by threefold dilution agar inclusion method.

≈ marks a conversion by molar mass, not a printed value.

As for `CC(=O)OCC1=C(/C=C/C(=O)[O-])N2C(=O)[C@@H](NC(=O)Cc3cccs3)[C@H]2SC1.[Na+]`, the MIC in assay [1], in assay [2], in assay [3], in assay [4] and in assay [5] was over 100 µg/mL in each case.

In the case of `CC(=O)OCC1=C(C2OCCO2)N2C(=O)[C@@H](NC(=O)Cc3cccs3)[C@H]2SC1`, the MIC in assay [1], in assay [2], in assay [3], in assay [4] and in assay [5] was over 100 µg/mL in each case.

Regarding `CC(=O)OCC1=C(/C=N/O)N2C(=O)[C@@H](NC(=O)Cc3cccs3)[C@H]2SC1`, the MIC in assay [1], in assay [2], in assay [3], in assay [4] and in assay [5] was over 100 µg/mL each time.

In the case of `CC(=O)OCC1=C(/C=N/NC(N)=O)N2C(=O)[C@@H](NC(=O)Cc3cccs3)[C@H]2SC1`, the MIC in assay [1], in assay [2], in assay [3], in assay [4] and in assay [5] was over 100 µg/mL each time.

Consider `CO/N=C/C1=C(COC(C)=O)CS[C@@H]2[C@H](NC(=O)Cc3cccs3)C(=O)N12`, for which the MIC in assay [1], in assay [2], in assay [3], in assay [4] and in assay [5] was over 100 µg/mL each time.

In the case of `CC(=O)OCC1=C(C(=O)O)N2C(=O)[C@@H](NC(=O)Cc3cccs3)[C@H]2SC1` [CEPHALOTHIN], the minimal inhibitory concentration (MIC) is 0.3 µg/mL (≈ 0.757 µM) in assay [1]; under 0.1 µg/mL in assay [2]; 30 µg/mL (≈ 75.7 µM) in assay [3]; 1 µg/mL (≈ 2.52 µM) in assay [4]; over 100 µg/mL in assay [5].

Consider `CC(=O)OCC1=C(/C=N/OCC(=O)O)N2C(=O)[C@@H](NC(=O)Cc3cccs3)[C@H]2SC1`, for which the MIC in assay [1], in assay [2], in assay [3], in assay [4] and in assay [5] was over 100 µg/mL in each case.

With `CC(=O)OCC1=C(C=O)N2C(=O)[C@@H](NC(=O)Cc3cccs3)[C@H]2SC1`, the minimum inhibitory concentration (MIC) is 30 µg/mL (≈ 78.9 µM) in assay [1]; 30 µg/mL (≈ 78.9 µM) in assay [2]; over 100 µg/mL in assay [3]; over 100 µg/mL in assay [4]; over 100 µg/mL in assay [5].
